pEC50: −log10 of the molar value.
Key:
medaka ARβ (mARβ) = medaka ARβ (mARβ) (Oryzias latipes, UniProt D1MV73); experiment: Medaka ARβ reporter gene assay (RGA), agonist assay, HepG2 cells; type: cell-based, Japanese medaka (Oryzias latipes); settings: mARβ RGA agonist assay; ND = no significant response even at the highest assay concentration (in parentheses)
Method in brief: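 HepG2 cells were transfected with medaka ARβ expression vector, MMTV-luciferase reporter and pRL-TK Renilla internal control. Agonist EC50 was estimated by nonlinear curve fitting, e.g. three-parameter logistic.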

[1] = tested on: Japanese medaka (Oryzias latipes); experiment: Fish short-term reproduction assay (FSTRA, OECD TG229), 21-day flow-through exposure; settings: for Fertility rate (%) / Mortality (%) Female / Mortality (%) Male / Number of fertilized eggs / Number of total eggs / SSC Female / SSC Male / VTG (ng/mg of liver) Female / VTG (ng/mg of liver) Male: 21 days; for GSI Female / GSI Male / HSI Female / HSI Male / Length Female / Length Male / Weight Female / Weight Male: at completion of exposure
Method in brief: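 Japanese medaka (NIES-R strain, 16 ± 2 weeks old) were exposed in flow-through tanks for 3 weeks, three males and three females per tank, four replicate tanks per group, with a dilution water control. Concentrations were spaced by a factor of 2–5. Eggs were collected daily and counted as fertilized or unfertilized.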

Japanese medaka = settings: long-term testing; ref Seki et al., 2004; cited from earlier work

Chain of medaka ARβ (mARβ) (D1MV73 entry or part of it): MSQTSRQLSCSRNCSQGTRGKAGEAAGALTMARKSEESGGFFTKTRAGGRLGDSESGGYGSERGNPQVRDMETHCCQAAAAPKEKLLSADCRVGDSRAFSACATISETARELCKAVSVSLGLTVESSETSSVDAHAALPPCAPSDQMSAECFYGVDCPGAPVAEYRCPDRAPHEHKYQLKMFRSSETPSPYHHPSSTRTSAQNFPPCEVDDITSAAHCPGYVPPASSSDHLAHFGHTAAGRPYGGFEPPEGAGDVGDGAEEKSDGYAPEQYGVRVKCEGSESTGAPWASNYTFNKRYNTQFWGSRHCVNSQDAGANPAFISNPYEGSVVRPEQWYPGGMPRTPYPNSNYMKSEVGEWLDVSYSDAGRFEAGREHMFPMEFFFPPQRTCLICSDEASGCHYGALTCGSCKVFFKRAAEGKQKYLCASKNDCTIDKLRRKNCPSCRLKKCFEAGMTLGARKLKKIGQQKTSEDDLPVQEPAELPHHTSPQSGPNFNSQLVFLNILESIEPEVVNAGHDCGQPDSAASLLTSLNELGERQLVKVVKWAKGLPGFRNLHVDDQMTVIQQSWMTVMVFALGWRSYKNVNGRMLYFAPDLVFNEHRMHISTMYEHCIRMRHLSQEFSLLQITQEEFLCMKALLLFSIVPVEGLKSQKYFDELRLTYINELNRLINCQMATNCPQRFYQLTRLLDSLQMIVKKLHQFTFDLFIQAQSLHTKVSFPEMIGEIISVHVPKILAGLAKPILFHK

## C[C@]12CCC(=O)C=C1CC[C@@H]1[C@@H]2CC[C@@]2(C)[C@H]1CC[C@]2(C)O [MT, 17α‐methyltestosterone]
Medaka ARβ (mARβ)
  pEC50: 9.92
[1]; 21-day exposure
  effect on female hepatic VTG, in words: decreased
[1]; 21-day exposure, measured conc.
  LOEC on female SSC (papillary process formation on anal fin): 20.1 ng/L
[1]; measured conc. 20.1 ng/L
  Fertility rate (%): 89%
  Mortality (%) Female: 0%
  Mortality (%) Male: 0%
  Number of fertilized eggs: 23
  Number of total eggs: 25 ± 4.6 /female/day
  SSC Female: 28 ± 2.0
  SSC Male: 104 ± 12
  VTG (ng/mg of liver) Female: 1,650 ± 134 ng/mg of liver
  VTG (ng/mg of liver) Male: 1.5 ± 0.3 ng/mg of liver
  GSI Female: 13.5%
  GSI Male: 0.68%
  HSI Female: 4.8%
  HSI Male: 2.5%
  Length Female: 36.1 mm
  Length Male: 37.3 mm
  Weight Female: 592 mg
  Weight Male: 546 mg
[1]; measured conc. 77.4 ng/L
  Fertility rate (%): 80%
  Mortality (%) Female: 0%
  Mortality (%) Male: 0%
  Number of fertilized eggs: 8.1
  Number of total eggs: 10 ± 2.9 /female/day
  SSC Female: 78 ± 7.9
  SSC Male: 106 ± 7.6
  VTG (ng/mg of liver) Female: 1,080 ± 391 ng/mg of liver
  VTG (ng/mg of liver) Male: 2.1 ± 0.3 ng/mg of liver
  GSI Female: 18.6%
  GSI Male: 0.78%
  HSI Female: 4.4%
  HSI Male: 2.4%
  Length Female: 36.7 mm
  Length Male: 38.3 mm
  Weight Female: 694 mg
  Weight Male: 603 mg
[1]; measured conc. 300 ng/L
  Fertility rate (%): 79%
  Mortality (%) Female: 8.3%
  Mortality (%) Male: 0%
  Number of fertilized eggs: 1.4
  Number of total eggs: 1.8 ± 1.1 /female/day
  SSC Female: 85 ± 11
  SSC Male: 112 ± 7.1
  VTG (ng/mg of liver) Female: 320 ± 266 ng/mg of liver
  VTG (ng/mg of liver) Male: 1.9 ± 0.6 ng/mg of liver
  GSI Female: 12.6%
  GSI Male: 0.68%
  HSI Female: 4.2%
  HSI Male: 2.5%
  Length Female: 37.0 mm
  Length Male: 37.5 mm
  Weight Female: 654 mg
  Weight Male: 561 mg
[1]; within the test concentrations, 21-day exposure
  effect on fecundity (number of total eggs), in words: significantly reduced
Japanese medaka
  concentration causing induction of SSC in females and reduction of reproduction: 9.98 pg/mL

From paper PMC8359193, “Summary of reference chemicals evaluated by the fish short‐term reproduction assay, OECD TG229, using Japanese Medaka, Oryzias latipes” (Journal of Applied Toxicology, 2021)
